Columns and labels:
[1] = test system: MITF; assay: MITF nuclear translocation in HeLa cells; format: cell-based, human; conditions: HeLa cells transfected with MITF-3×Flag
Source text: FIG. 23. Pharmacological inhibition of AKT induces nuclear translocation of TFE3 and MITF. HeLa cells were transiently transfected with TFE3-3×Flag (a) and MITF-3×Flag (b) and analyzed by confocal microscopy. Scale bar is 10 μm.

[2] = test system: HeLa cells; assay: Autophagic flux in HeLa cells (LAMP1, p62, LC3 markers); format: cell-based, human; conditions: time course
Description: FIG. 14. Akt phosphorylates TFEB at Ser467. […] Dashed boxes (upper row) show the location of the higher power inserts (lower row). (b) Subcellular fractionation of HeLa/TFEB cells incubated with the same kinase inhibitors. (c) Multi-alignment of TFEB amino-acid sequences from the following species: Ac, Anolis carolensis; Bt, Bos taurus; Dr, Danio rerio; Fc, Felix catus; Gg, gallus gallus; Hs, Homo sapiens; La, Loxodonta africana; Mm, Mus musculus; Rn, Rattus Norvegicus; Sh, Sarcophilus harrisii; Sp, Strongylocentrotus purpuratus; XI, Xenopus laevis. A consensus logo of Akt phosphorylation sites (generated at weblogo.berkeley.edu/logo.cgi) is aligned with TFEB sequences. Position 467 refers to the human protein sequence. (d) Subcellular localization of TFEB and TFEB(S467A). (e) Expression analysis of lysosomal and autophagy genes in HeLa cells transfected with TFEB or TFEB(S467A). […]
Brain tissue and cultured cells were collected and lysed in RIPA buffer (50 mM Tris-HCl, ph 7.4, 1% NP40, 0.5% Na-deoxycholate, 0.1% SDS, 150 mM NaCl, 2 mM EDTA and 50 mM NaF) including a cocktail of protease (Roche) and phosphatase (SIGMA) inhibitors. Protein concentrations were measured with the bicinchoninic acid protein assay kit (Pierce, Rockford, Ill.), using bovine serum albumin as standard. […] Western blot images were acquired by LAS 4000 (GE Healthcare) and quantified using ImageJ. […]

[3] = test system: TFEB; assay: TFEB nuclear translocation in HeLa cells with WT or constitutively active mTOR; format: cell-based, human; conditions: cells transfected with WT mTOR or mTOR^E2419K, trehalose 100 mM 24 h
Description: (b) Quantification of TFEB subcellular localization (C, cytoplasmic; N, nuclear) after 24 h of trehalose treatment (Tre) or in untreated cells (UT). Scale bars in a, b is 40 μm. (c) Immunoblot analyses show expression levels of substrates downstream of mTORC1. Wild-type (WT) and TSC2 null MEF cells were treated with trehalose (Tre; 100 mM) for 24 h or left untreated. As controls, cells were treated with Torin 1 (300 nM) or rapamycin (300 nM) for 2 h before extracting the lysates. Phospho- and total S6K1 (P-S6K1 and T-S6K1), phospho- and total S6 (P-S6 and T-S6) and phospho- and total 4E-BP1 (P-4E-BP1 and T-4E-BP1) were detected as readouts of mTORC1 activity. […] (f) HeLa cells co-transfected with TFEB-3×FLAG and mTOR or (g) TFEB-3×FLAG and constitutively active mTOR (CA-mTOR, […]) constructs were treated with trehalose (100 mM for 24 h) or left untreated before immunofluorescent labelling of TFEB (red) and mTOR (green) with FLAG and mTOR antibodies, respectively. Scale bar, 10 μm (d-g). Data represent means±s.e.m.
For immunofluorescence assay, cells were grown on coverslips in 24-well plates. After the treatment, cells were washed with PBS and fixed with methanol for 10 min. Cells were then blocked with blocking reagent (0.1% saponin, 10% bovine serum in PBS) for 1 h and incubated with appropriate primary antibody(s) (1:100) for 3 h at room temperature. […]

[4] = cited from earlier work
[5] = test system: Cln3^Δex7-8 mice; assay: Storage burden (autofluorescent storage material, confocal thresholding); format: in vivo, mouse; conditions: S1BF and VPM/VPL, 7- and 12-month-old Cln3^Δex7-8 mice
Description: To analyse the relative level of the autofluorescent storage material present in each brain region, mouse brain sections spanning the S1BF and VPM/VPL were mounted onto gelatin-chrome-coated slides and cover-slipped with Vectashield (Vector Laboratories, Peterborough, UK). Non-overlapping images from each section were captured at ×63 magnification using a Leica SP5 confocal microscope and a 488 nm excitation laser (Leica Microsystem). Thresholding image analysis was performed to determine the storage burden present in each region. During image capture, all laser parameters and calibrations were kept constant. Semiquantitative thresholding image analysis was carried out using ImageJ (NIH).

Row | Compound | MITF nuclear translocation [1] | autophagic flux [2] | TFEB nuclear translocation [3] | oral amount that may cause diarrhea and bloating ([4]; oral) | safety and toxicity ([4]; orally and intravenously, doses substantially higher than the intended therapeutic dose) | punctate autofluorescent storage material [5]
1 | Cl.NC1(c2ccc(-c3nc4ccn5c(=O)[nH]nc5c4cc3-c3ccccc3)cc2)CCC1 [MK2206, 8-[4-(1-aminocyclobutyl)phenyl]-9-phenyl-1,2,4-triazolo[3,4-f][1,6]naphthyridin-3(2H)-one] | promoted nuclear translocation of these two factors |  |  |  |  | 
2 | OC[C@H]1O[C@H](O[C@H]2O[C@H](CO)[C@@H](O)[C@H](O)[C@H]2O)[C@H](O)[C@@H](O)[C@@H]1O [trehalose, a-D-glucopyranosyl a-D-glucopyranoside] |  | increasing autophagic flux | induces nuclear translocation of TFEB | 40-50 grams per day | found to be safe | significantly reduced

From patent US10512656B2, “Compositions and methods for the treatment of lysosomal storage disorders and disorders characterized by lysosomal dysfunction” (Baylor College of Medicine, priority 2016, dated 2019)
